{
  "source": "patent US20080279775A1",
  "about": "“Benztropinamine Analogs as Dopamine Uptake Inhibitors” (priority 2005, published 2008)",
  "key": {"NET": {"test_system": "NET", "assay_type": "binding, rat", "details": "Ki ratio", "method": "(§1) In order to understand the neurochemical and behavioral properties of the compounds of the present invention, exemplary benztropinamine analogs were evaluated for displacement of [^3H]WIN 35,428 (2β-carbomethoxy-3β-(4-fluorophenyl)tropane) binding to the DAT in rat caudate-putamen. These benztropinamine analogs were also evaluated for displacement of radiolabeled ligand binding at the serotonin (SERT) and norepinephrine (NET) transporters as well as the muscarinic m1 receptor (M1), Table 1, infra. The NET over DAT selectivity refers to the Ki ratio. When the Ki ratio is greater than 1, the compound is DAT selective. The DAT selectivities of the analogs over these binding sites are depicted in Table 2.\n[^3H]Nisoxetine Binding Assay. Membranes from frozen frontal cortex dissected from male Sprague-Dawley rats (Taconic Labs, Germantown, N.Y.) were homogenized in 20 volumes (w/v) of 50 mM Tris containing 120 mM NaCl and 5 mM KCl (pH 7.4 at 25° C.), using a Brinkman Polytron (at setting 6 for 20 sec). The tissue was centrifuged at 50,000×g for 10 min at 4° C. The resulting pellet was resuspended in buffer and recentrifuged. The final pellet was resuspended in cold buffer to a concentration of 80 mg/ml (original wet weight). Ligand binding experiments were conducted in assay tubes containing 0.5 ml buffer, 0.5 nM [3H]nisoxetine (New England Nuclear, Boston, Mass.), and 8 mg frontal cortex tissue. The reaction was started with the addition of the tissue and the tubes were incubated for 60 min at 0-4° C. The incubation was terminated by rapid filtration through Whatman GF/B filters, presoaked in 0.05% polyethylenimine, using a Brandel Cell Harvester (Brandel Instruments Gaithersburg, Md.). The filters were washed twice with 5 ml cold buffer, transferred to scintillation vials to which Beckman Ready Safe was added. Nonspecific binding was determined using 1 μM desipramine. Data were analyzed using GraphPad Prism software (San Diego, Calif.)."}, "muscarinic M1 receptor": {"target": "T1, muscarinic M1 receptor (Rattus norvegicus, UniProt P08482)", "T1 construct": "Membranes from frozen rat brains excluding cerebellum were thawed in ice-cold buffer; from tissue; host or cells: frozen rat brain (excluding cerebellum) membranes", "T1 sequence (P08482 1-460)": "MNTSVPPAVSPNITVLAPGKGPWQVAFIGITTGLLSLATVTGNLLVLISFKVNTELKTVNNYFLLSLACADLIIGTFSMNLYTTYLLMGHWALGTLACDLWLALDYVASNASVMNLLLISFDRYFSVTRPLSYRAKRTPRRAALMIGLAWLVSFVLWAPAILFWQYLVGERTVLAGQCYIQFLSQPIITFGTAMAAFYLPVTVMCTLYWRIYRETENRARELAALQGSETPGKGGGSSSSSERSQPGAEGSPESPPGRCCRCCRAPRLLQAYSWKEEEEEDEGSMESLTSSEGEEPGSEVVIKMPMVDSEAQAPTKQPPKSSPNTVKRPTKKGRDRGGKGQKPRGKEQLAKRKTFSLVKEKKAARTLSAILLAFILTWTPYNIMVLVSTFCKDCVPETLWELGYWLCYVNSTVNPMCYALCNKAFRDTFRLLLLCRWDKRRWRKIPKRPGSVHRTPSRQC", "test": "[3H]Pirenzepine binding assay", "method": "as §1, with “When the Ki ratio is greater than 1, the compound is DAT selective.” left out\n[…] Binding Assay. Membranes from frozen rat brains excluding cerebellum were thawed in ice-cold buffer (10 mM Tris-HCl, 320 mM sucrose, pH 7.4) and homogenized with a Brinkman polytron in a volume of 10 ml/gm of tissue. The homogenate was centrifuged at 1,000×g for 10 min at 4° C. The resulting supernatant was then centrifuged at 10,000×g for 20 min at 4° C. The resulting pellet was resuspended in a volume of 200 mg/ml in 10 mM Tris buffer (pH 7.4). Ligand binding assays were conducted in tubes containing 0.5 ml of buffer (10 mM Tris-HCl, 5 mM MgCl2), 3 nM [^3H]pirenzepine (New England Nuclear, Boston, Mass.), and 20 mg of brain tissue. The reaction was started with the addition of the tissue and the tubes were incubated for 60 min in a 37° C. water bath. The incubation was terminated by the addition of 5 ml of ice-cold buffer (10 mM Tris-HCl, pH 7.4) and rapid filtration through Whatman GF/B glass fiber filter paper (presoaked in 0.5% polyethylenimine) using a Brandel Cell Harvester (Brandel Instruments, Gaithersburg, Md.). The filters were washed twice with 5 ml cold buffer, and transferred to scintillation vials to which absolute ethanol and Beckman Ready Safe was added. Quinuclidinyl benzilate (QNB), 100 μM final concentration, was used to determine non-specific binding. Data were analyzed by using GraphPad Prism software (San Diego, Calif.)."}, "SERT": {"target": "T2, SERT (Rattus norvegicus, UniProt P31652)", "T2 construct": "Membranes from frozen rat midbrain were homogenized; from tissue; host or cells: frozen rat midbrain membranes", "T2 sequence (P31652 whole entry)": "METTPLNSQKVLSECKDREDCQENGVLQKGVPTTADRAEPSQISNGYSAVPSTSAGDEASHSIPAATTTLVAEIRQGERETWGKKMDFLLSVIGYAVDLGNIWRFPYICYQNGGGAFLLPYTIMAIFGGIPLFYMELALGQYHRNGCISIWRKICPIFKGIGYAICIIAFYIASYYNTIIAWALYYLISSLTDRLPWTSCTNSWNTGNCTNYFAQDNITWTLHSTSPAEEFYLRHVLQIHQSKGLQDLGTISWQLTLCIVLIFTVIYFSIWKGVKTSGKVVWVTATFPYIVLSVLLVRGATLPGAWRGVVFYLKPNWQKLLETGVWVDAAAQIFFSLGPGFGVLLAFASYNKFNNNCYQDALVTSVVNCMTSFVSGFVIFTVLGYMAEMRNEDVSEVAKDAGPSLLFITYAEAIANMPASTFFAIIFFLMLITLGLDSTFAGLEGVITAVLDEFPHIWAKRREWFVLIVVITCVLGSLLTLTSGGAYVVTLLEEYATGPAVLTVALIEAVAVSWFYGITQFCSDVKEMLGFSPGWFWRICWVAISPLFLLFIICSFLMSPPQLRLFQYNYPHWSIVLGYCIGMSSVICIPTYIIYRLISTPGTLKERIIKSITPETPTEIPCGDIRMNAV", "test": "[3H]Citalopram binding assay", "method": "as §1\n[^3H]Citalopram Binding Assay. Membranes from frozen rat midbrain were homogenized in 20 volumes (w/v) of 50 mM Tris containing 120 mM NaCl and 5 mM KCl (pH 7.4 at 25° C.), using a Brinkman Polytron (at setting 6 for 20 sec). The tissue was centrifuged at 20,000×g for 10 min at 4° C. The resulting pellet was resuspended in buffer and recentrifuged. The final pellet was resuspended in cold buffer to a concentration of 15 mg/ml (original wet weight). Ligand binding experiments were conducted in assay tubes containing 0.5 ml of buffer, 1.4 nM [^3H]citalopram (New England Nuclear, Boston Mass.), and 1.5 mg midbrain tissue. The reaction was started with the addition of the tissue and the tubes were incubated for 60 min at 25° C. (room temperature). The incubation was terminated by rapid filtration through Whatman GF/B filters (presoaked in 0.3% polyethylenimine in water) using a Brandel Cell Harvester (Brandel Instruments Gaithersburg, Md.). The filters were washed twice with 5 ml cold buffer, transferred to scintillation vials to which Beckman Ready Safe was added. Nonspecific binding was determined using 10 μM fluoxetine (RBI, Natick, Mass.). Data were analyzed using GraphPad Prism software (San Diego, Calif.)."}, "mice": {"test_system": "mice", "test": "Locomotor stimulant effects (activity counts per minute)", "assay_type": "in vivo", "text": "In contrast, 2m produced much more modest increases in activity of around 100 counts per min."}, "rats": {"test_system": "rats", "test": "Cocaine drug discrimination (cocaine-like subjective effects)", "assay_type": "in vivo", "details": "rats trained to discriminate cocaine from vehicle, over the dose range tested, FIGS. 3A and 3B", "text": "FIG. 3A depicts % drug responding as a function of dose; FIG. 3B depicts % control response rate as a function of dose.\nRats were trained to emit one response after an injection of cocaine and a different response after injection of vehicle. Once the subjects were well trained, they act as detectors of cocaine-like subjective effects."}, "DAT": {"target": "T3, DAT (Rattus norvegicus, UniProt P23977)", "T3 construct": "their brains removed to an ice-cooled dish for dissection of the caudate putamen; from tissue; host or cells: rat caudate putamen membranes (fresh homogenates)", "T3 sequence (P23977 whole entry)": "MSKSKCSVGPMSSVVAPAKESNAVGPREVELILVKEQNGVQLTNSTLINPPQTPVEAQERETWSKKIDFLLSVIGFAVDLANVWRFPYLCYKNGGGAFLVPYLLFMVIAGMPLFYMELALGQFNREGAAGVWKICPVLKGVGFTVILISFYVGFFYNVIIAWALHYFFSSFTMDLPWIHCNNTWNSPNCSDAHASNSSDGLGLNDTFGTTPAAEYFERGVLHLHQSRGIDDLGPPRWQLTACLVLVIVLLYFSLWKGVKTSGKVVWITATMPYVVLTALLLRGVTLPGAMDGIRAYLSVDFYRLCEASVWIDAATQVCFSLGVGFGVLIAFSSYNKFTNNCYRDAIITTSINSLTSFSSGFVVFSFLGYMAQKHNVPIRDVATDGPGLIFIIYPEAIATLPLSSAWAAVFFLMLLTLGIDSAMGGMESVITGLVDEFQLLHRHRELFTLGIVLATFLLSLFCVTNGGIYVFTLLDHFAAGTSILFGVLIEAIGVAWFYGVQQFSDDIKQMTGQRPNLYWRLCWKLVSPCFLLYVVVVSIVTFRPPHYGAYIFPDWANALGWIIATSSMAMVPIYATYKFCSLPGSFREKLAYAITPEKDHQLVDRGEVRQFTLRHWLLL", "test": "Dopamine transporter binding assay, displacement of [3H]WIN 35,428", "details": "rat caudate-putamen membranes; read-out: DAT [3H]WIN 35,428 Ki ± SEM"}},
  "note": "“And” between values parts separate entries of the source, which are not always exact repeats. Identical values can stand only once. “Also recorded” adds a separate entry of the source.",
  "data": [
    {"smiles": "O=C(CCN1[C@@H]2CC[C@H]1C[C@@H](NC(c1ccc(F)cc1)c1ccc(F)cc1)C2)Nc1ccccc1", "note": "[Compound 2m]", "values": [
      {"measurement": "Binding selectivity NET/DAT", "setting": "NET", "value": "535 and 536"},
      {"measurement": "Binding selectivity M1/DAT", "setting": "muscarinic M1 receptor; Ki ratio", "value": 551},
      {"measurement": "Ki", "setting": "muscarinic M1 receptor; rat brain membranes excluding cerebellum, read-out: M1 [3H]pirenzepine Ki ± SEM", "value": "2540 ± 124", "unit": "nM"},
      {"measurement": "Binding selectivity SERT/DAT", "setting": "SERT; Ki ratio", "value": 132},
      {"measurement": "Ki", "setting": "SERT; rat midbrain membranes, read-out: SERT [3H]citalopram Ki ± SEM", "value": "608 ± 41", "unit": "nM"},
      {"measurement": "Cocaine-like locomotor stimulant effects", "setting": "mice", "value": "lacks cocaine-like locomotor stimulant effects"},
      {"measurement": "Locomotor activity", "setting": "mice; injected, at the most effective dose, FIG. 2", "value": "around 100 counts per min"},
      {"measurement": "Cocaine-like subjective effects (substitution for cocaine)", "setting": "rats", "value": "lacks cocaine-like subjective effects; also recorded: did not substitute for cocaine"},
      {"measurement": "Ki", "setting": "DAT", "value": 4.61, "unit": "nM"}
    ]}
  ]
}
